Source: patent US8859584B2, “TRPV1 antagonists” (AbbVie Inc., priority 2011, dated 2014)

Columns and labels:
human TRPV1 [1] = target: T1, human TRPV1 (Homo sapiens, UniProt Q8NER1); experiment: Acid Activation Assay (pH 5.0, FLIPR intracellular Ca2+, recombinant HEK293 cells); assay type: cell-based; conditions: percentage of maximal pH 5.0-induced response remaining; HEK293 hTRPV1; max concentration 37.5 μM
T1 construct: expressed in transfected cells
Description: (ii) Acid Activation Assay
Dulbecco's modified Eagle's medium (DMEM) with 4.5 mg/mL D-glucose, fetal bovine serum, L-glutamine, and 2-morpholinoethanesulfonic acid (MES) were purchased from Sigma-Aldrich Co. (St. Louis, Mo.). […] The FLIPR® Calcium 4 assay kit was purchased from Molecular Devices (Sunnyvale, Calif.).
(§1) Expression plasmids encoding the hTRPV1 cDNA were transfected into HEK293 cells using Lipofectamine®. Forty-eight hours after transfection, the neomycin-resistant cells were selected with growth medium containing 800 μg/mL Geneticin (Life Technologies, formerly Gibco BRL). Surviving individual colonies were isolated and screened for TRPV1 activity. Cells expressing recombinant TRPV1 were maintained at 37° C. in DMEM containing 4 mM L-glutamine, 300 μg/mL G418 (Calbiochem) and 10% fetal bovine serum under a humidified 5% CO2 atmosphere.
The functional activity of compounds at the TRPV1 receptor was determined by measurement of intracellular Ca^2+ levels ([Ca^2+]i) using the Fluorescence Imaging Plate Reader (FLIPR)TETRA®. […] Compound stocks, 10 mM, were prepared in DMSO, and diluted serially across a 384-well plate using a Bravo BenchCel workstation (Agilent Technologies, Santa Clara, Calif.). On the day prior to the experiment, the recombinant HEK293 cells expressing human TRPV1 (hTRPV1) were removed from tissue culture flasks and plated in growth medium into black-walled clear-bottom 384-well Biocoat™ poly-D-lysine assay plates (BD Biosciences, Bedford, Mass.) using a Multidrop® dispenser (ThermoScientific, Waltham, Mass.). […] The plated cells were incubated for 90-120 min in the dark at 25° C. The test compounds dissolved in DMSO were then added to the plates using an Agilent Bravo workstation (Agilent Technologies Inc., Santa Clara, Calif.). Three minutes later, a pH 5.0 solution was added to each well. Reagents were delivered at a rate of 40 μL/sec, and the final assay volume was 80 μL. Acidic pH solutions were prepared by titration of DPBS/MES with 1 N HCl. The intensity of the fluorescence was captured and digitally transferred to an interfaced PC. The maximum peak measured for the concentration range tested was used to calculate the corresponding peak increase in fluorescence over baseline (relative fluorescence units) which was expressed as the percentage (max % remain) of the maximal pH 5.0-induced response.

human TRPV1 [2] = target: T1, human TRPV1; experiment: Capsaicin Activation Assay (FLIPR intracellular Ca2+, recombinant HEK293 cells); assay type: cell-based; conditions: recombinant HEK293 cells expressing hTRPV1; 50 nM capsaicin; read-out: human TRPV1 capsaicin IC50
Description: (i) Capsaicin Activation Assay
Dulbecco's modified Eagle medium (DMEM) (with 4.5 mg/mL glucose) and fetal bovine serum were obtained from Hyclone Laboratories, Inc. (Logan, Utah). Dulbecco's phosphate-buffered saline (DPBS) (with 1 mg/mL glucose and 3.6 mg/l Na pyruvate, without phenol red), L-glutamine, hygromycin B, and Lipofectamine® were obtained from Life Technologies (Grand Island, N.Y.). G418 sulfate was obtained from Calbiochem-Novabiochem Corp. (San Diego, Calif.). Capsaicin (8-methyl-N-vanillyl-6-nonenamide) was obtained from Sigma-Aldrich, Co. (St. Louis, Mo.). Fluo-4 AM (N-[4-[6-[(acetyloxy)-methoxy]-2,7-difluoro-3-oxo-3H-xanthen-9-yl]-2-[2-[2-[bis[2-[(acetyloxy)methoxy]-2-oxyethyl]amino]-5-methylphenoxy]ethoxy]phenyl]-N-[2-[(acetyloxy)methoxy]-2-oxyethyl]-glycine, (acetyloxy)methyl ester) was purchased from Molecular Probes (Eugene, Oreg.).
as §1
The functional activity of compounds at the TRPV1 receptor was determined by measurement of intracellular Ca^2+ levels ([Ca^2+]i) using the Fluorescence Imaging Plate Reader (FLIPR)TETRA®. All compounds were tested over a 12-point one-third-log concentration range. Compound stocks, 10 mM, were prepared in DMSO, and diluted serially across a 384-well plate using a Bravo BenchCel workstation (Agilent Technologies, Santa Clara, Calif.). A stock concentration of capsaicin (10 mM) was made in DMSO, and diluted in DPBS to a final concentration of 200 nM (4×). On the day prior to the experiment, the recombinant HEK293 cells expressing human TRPV1 (hTRPV1) were removed from tissue culture flasks and plated in growth medium into black-walled clear-bottom 384-well Biocoat™ poly-D-lysine assay plates (BD Biosciences, Bedford, Mass.) using a Multidrop® dispenser (ThermoScientific, Waltham, Mass.). […] The plated cells were incubated for 90-120 minutes in the dark at room temperature and then test compound was added to each well. Three minutes later, 200 nM capsaicin (4×) solution was added to each well in an amount sufficient to provide a final assay volume of 80 μL and capsaicin concentration of 50 nM. Fluorescence readings were made at 1 to 5 second intervals over the course of the experimental run. The peak increase in relative fluorescence units (minus baseline) was calculated, and expressed as a percentage of the 50 nM capsaicin (control) response.

T1 sequence (Q8NER1 whole entry): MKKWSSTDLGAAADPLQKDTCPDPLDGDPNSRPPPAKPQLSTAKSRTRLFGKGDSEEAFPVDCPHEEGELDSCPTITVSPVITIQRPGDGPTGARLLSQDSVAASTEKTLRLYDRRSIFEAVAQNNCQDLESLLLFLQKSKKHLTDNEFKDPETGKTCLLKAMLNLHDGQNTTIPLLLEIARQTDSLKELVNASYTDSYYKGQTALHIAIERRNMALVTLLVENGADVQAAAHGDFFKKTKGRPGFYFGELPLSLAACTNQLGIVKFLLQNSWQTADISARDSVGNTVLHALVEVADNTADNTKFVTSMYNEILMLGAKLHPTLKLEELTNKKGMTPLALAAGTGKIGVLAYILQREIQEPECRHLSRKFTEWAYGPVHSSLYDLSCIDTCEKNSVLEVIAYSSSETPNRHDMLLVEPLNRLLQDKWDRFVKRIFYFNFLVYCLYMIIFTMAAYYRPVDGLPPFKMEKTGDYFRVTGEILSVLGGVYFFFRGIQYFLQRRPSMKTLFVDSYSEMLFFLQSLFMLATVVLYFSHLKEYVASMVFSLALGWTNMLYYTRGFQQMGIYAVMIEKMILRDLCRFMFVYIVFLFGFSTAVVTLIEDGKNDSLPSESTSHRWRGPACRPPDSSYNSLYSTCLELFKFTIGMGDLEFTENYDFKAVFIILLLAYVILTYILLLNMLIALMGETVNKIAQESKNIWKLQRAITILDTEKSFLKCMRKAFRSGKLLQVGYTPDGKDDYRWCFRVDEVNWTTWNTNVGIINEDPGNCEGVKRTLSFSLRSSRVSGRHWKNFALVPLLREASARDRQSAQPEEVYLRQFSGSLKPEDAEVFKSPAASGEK

Row | human TRPV1 H+ (max % remain) (human TRPV1 [1]) [%] | IC50 (human TRPV1 [2]) [nM] | SMILES
1 | 40 | 61 | CC1(C)C[C@@H](NC(=O)Nc2ccc(F)c3c2C[C@@H](O)C3)c2cccc(C(F)(F)F)c2O1 [Example 156, 1-[(4R)-2,2-dimethyl-8-(trifluoromethyl)-3,4-dihydro-2H-chromen-4-yl]-3-[(2R)-7-fluoro-2-hydroxy-2,3-dihydro-1H-inden-4-yl]urea]
2 | 59 | 1800 | CC1(C)C[C@@H](NC(=O)Nc2ccc(F)c3c2C[C@@H](O)C3)c2cccc(F)c2O1 [Example 157, 1-[(4R)-8-fluoro-2,2-dimethyl-3,4-dihydro-2H-chromen-4-yl]-3-[(2R)-7-fluoro-2-hydroxy-2,3-dihydro-1H-inden-4-yl]urea]
3 | 47 | 400 | CC1(C)C[C@@H](NC(=O)Nc2ccc(F)c3c2C[C@@H](O)C3)c2ccc(F)c(F)c2O1 [Example 171, 1-[(4R)-7,8-difluoro-2,2-dimethyl-3,4-dihydro-2H-chromen-4-yl]-3-[(2R)-7-fluoro-2-hydroxy-2,3-dihydro-1H-inden-4-yl]urea]
4 | 72 | 17 | CC1(CF)C[C@@H](NC(=O)Nc2cccc3c2C[C@H](O)C3)c2ccc(Cl)cc2O1 (stereo partly drawn) [Example 67, 1-[(4R)-7-chloro-2-(fluoromethyl)-2-methyl-3,4-dihydro-2H-chromen-4-yl]-3-[(2R)-2-hydroxy-2,3-dihydro-1H-inden-4-yl]urea]
5 | 63 | > 38000 | O=C(Nc1cccc2c1CC(O)C2)NC1c2ccccc2CC1Cc1ccc(Cl)c(Cl)c1 (stereo not drawn) [Example 124, 1-[2-(3,4-dichlorobenzyl)-2,3-dihydro-1H-inden-1-yl]-3-(2-hydroxy-2,3-dihydro-1H-inden-4-yl)urea]
6 | 56 | 13 | O=C(Nc1cccc2c1C[C@H](O)C2)N[C@@H]1CCc2c1cccc2C(F)(F)F [Example 41, 1-[(2R)-2-hydroxy-2,3-dihydro-1H-inden-4-yl]-3-[(1R)-4-(trifluoromethyl)-2,3-dihydro-1H-inden-1-yl]urea]
7 | 23 | 52 | CCC1(CC)C[C@@H](NC(=O)Nc2cccc3c2C[C@H](O)C3)c2ccc(OC(F)(F)F)cc2O1 [Example 60, 1-[(4R)-2,2-diethyl-7-(trifluoromethoxy)-3,4-dihydro-2H-chromen-4-yl]-3-[(2R)-2-hydroxy-2,3-dihydro-1H-inden-4-yl]urea]

Second part, the molecule before the results:

Row | SMILES | human TRPV1 H+ (max % remain) (human TRPV1 [1]) [%] | IC50 (human TRPV1 [2]) [nM]
8 | C[C@]1(CF)C[C@@H](NC(=O)Nc2ccc3c(c2)C(O)C3)c2ccccc2O1 (stereo partly drawn) [Example 132, 1-[(2R,4R)-2-(fluoromethyl)-2-methyl-3,4-dihydro-2H-chromen-4-yl]-3-(8-hydroxybicyclo[4.2.0]octa-1,3,5-trien-3-yl)urea] | 95 | 31000
9 | O=C(Nc1ccc(F)c2c1C[C@@H](O)C2)N[C@@H]1CC(CF)(CF)Oc2c(F)cc(F)cc21 [Example 162, 1-[(4R)-6,8-difluoro-2,2-bis(fluoromethyl)-3,4-dihydro-2H-chromen-4-yl]-3-[(2R)-7-fluoro-2-hydroxy-2,3-dihydro-1H-inden-4-yl]urea] | 50 | 3400
10 | O=C(Nc1ccc(F)c2c1C[C@H](O)C2)N[C@@H]1CC(CF)(CF)Oc2ccccc21 [Example 151, 1-[(4R)-2,2-bis(fluoromethyl)-3,4-dihydro-2H-chromen-4-yl]-3-[(2S)-7-fluoro-2-hydroxy-2,3-dihydro-1H-inden-4-yl]urea] | 6 | 6600
11 | O=C(Nc1cccc2c1C[C@H](O)C2)N[C@@H]1CCc2cc(Cl)ccc21 [Example 39, 1-[(1R)-5-chloro-2,3-dihydro-1H-inden-1-yl]-3-[(2R)-2-hydroxy-2,3-dihydro-1H-inden-4-yl]urea] | 46 | 25
12 | CCCC1(CCC)C[C@@H](NC(=O)Nc2cccc3c2C[C@H](O)C3)c2cc(F)ccc2O1 [Example 56, 1-[(4R)-6-fluoro-2,2-dipropyl-3,4-dihydro-2H-chromen-4-yl]-3-[(2R)-2-hydroxy-2,3-dihydro-1H-inden-4-yl]urea] | 96 | 46
